# Reference: patent US8361998B2, “Compounds and their use as IKACh blockers” (AstraZeneca AB, priority 2010, dated 2013)
# Target: T1, human cardiac ion channel proteins hKir3.1/Kir3.4 (Homo sapiens, UniProt P48544+P48549)
# T1 construct: expressed in transfected cells
# T1 sequence (P48549 1-501): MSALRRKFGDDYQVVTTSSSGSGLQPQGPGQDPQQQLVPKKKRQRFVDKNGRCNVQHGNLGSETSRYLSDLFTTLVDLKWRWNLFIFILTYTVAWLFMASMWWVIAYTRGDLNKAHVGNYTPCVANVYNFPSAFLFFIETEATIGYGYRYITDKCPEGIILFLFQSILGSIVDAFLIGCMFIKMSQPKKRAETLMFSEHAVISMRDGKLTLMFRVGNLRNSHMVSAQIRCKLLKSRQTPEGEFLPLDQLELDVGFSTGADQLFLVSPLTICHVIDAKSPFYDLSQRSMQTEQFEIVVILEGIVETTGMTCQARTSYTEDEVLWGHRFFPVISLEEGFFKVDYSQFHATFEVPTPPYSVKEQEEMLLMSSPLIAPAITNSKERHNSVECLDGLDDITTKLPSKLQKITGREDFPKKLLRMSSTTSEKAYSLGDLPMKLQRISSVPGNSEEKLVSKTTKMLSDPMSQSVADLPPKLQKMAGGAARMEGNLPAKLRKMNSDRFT
# T1 sequence (P48544 1-419): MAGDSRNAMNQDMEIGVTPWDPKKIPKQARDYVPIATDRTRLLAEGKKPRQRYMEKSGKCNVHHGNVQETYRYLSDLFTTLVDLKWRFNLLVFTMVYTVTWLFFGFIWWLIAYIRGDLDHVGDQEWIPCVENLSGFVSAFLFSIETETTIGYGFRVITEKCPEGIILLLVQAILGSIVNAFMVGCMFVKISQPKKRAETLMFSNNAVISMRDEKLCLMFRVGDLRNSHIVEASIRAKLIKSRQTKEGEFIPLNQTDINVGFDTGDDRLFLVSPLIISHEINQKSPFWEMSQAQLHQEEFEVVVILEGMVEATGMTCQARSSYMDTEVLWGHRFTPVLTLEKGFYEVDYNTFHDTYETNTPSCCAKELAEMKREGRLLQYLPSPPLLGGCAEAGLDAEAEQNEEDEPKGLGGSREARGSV
# Test: Atomic Absorption Screening (AAS) Rb efflux assay of hKir3.1/Kir3.4 block, carbachol/high K+ stimulated, 10-pt or 7-pt CR
# Type: cell-based
# Details: 7-pt CR (0.037 to 27 μmol/L), AAS Rb efflux, CHO-K1 cells expressing hKir3.1/Kir3.4; mean of >3 replicates; read-out: IKACh IC50 7-pt CR, AAS
# Source text: Human KCNJ3 encoding Kir3.1 (Genbank acc. No. NM_002239) was inserted between EcoRI and NotI in the pIRESneo3 vector (Clontech Laboratories, Inc. CA, USA). Human KCNJ5 encoding Kir3.4 (Genbank Acc. No. BC069482) was inserted between EcoR1 and Not1 in the pIRESpuro3 vector (Clontech Laboratories, Inc. CA, USA). A Kozak sequence (GCCACC) was introduced before the start codon ATG of both constructs. Chinese Hamster Ovary K1, CHO-FLP/IN, cells (Invitrogen Corporation, Paisley, UK) were transfected simultaneously using Lipofectamine 2000 reagent (Invitrogen Corporation, Paisley, UK). Geneticin 600 μg/mL (Invitrogen Corporation, Paisley, UK) and puromycin 3 μg/mL (BD Bioscience) were added to the cell culture medium 3 days after transfection. Two weeks after transfection, colonies had appeared and were manually picked and sorted to one cell per well in a 96-well plate. Cells were then tested for Kir3.1 and Kir3.4 expression using membrane potential assay, Western Blot and Immunocytochemistry. […] The cell line was re-sorted by flow cytometry and resulting clones were assayed electrophysiologically using IonWorks (Molecular Devices) and later validated on the Q-Patch (Sophion A/S).
# The stable cell line was cultured in DMEM/F12 with Glutamax 1 (Invitrogen Corporation, Paisley, UK), supplemented with foetal bovine serum 10%, puromycin 3 μg/mL, hygromycin 300 μg/mL and geneticin 600 μg/mL (Invitrogen Corporation, Paisley, UK). Care was taken not to seed cells at too low density and cells were passaged at approximately 70-80% confluency. Cells used for patch-clamp experiments were prepared by washing using PBS (—Mg, —Ca^2+), 2 times, detached using Accutase (Sigma). For Q-Patch measurements, storage medium was prepared fresh by adding 1.25 mL of 1M Hepes (GibcoBRL) to 50 mL CHO-SFM II medium (GibcoBRL) and detached cells were diluted to 2 million cells/mL in this medium. Frozen (Cryopreserved) cells were used for Atomic Absorption Screening (AAS) and plated poly-D-lysine 384-well plates (Greiner) at a density of 11,000-13,000 cells/well, the day before assay.
# The blocking effects of compounds on the human cardiac ion channel proteins hKir3.1/Kir3.4 were assessed in CHO-K1 cells stably expressing the channel proteins using Atomic Absorption Screening (AAS). Cells were washed and then loaded with 25 μL Rb-loading buffer for three hours at 37° C. After that, the cells were washed again and 25 μL of diluted compound was transferred to the cell plate, incubated for 5 min in RT, and then […] of Carbachol/high K+ (10 μM carbachol and 20 mM KCl final concentration) buffer added to stimulate the cells and open the Kir3.1/Kir3.4 channel. After 10 min stimulation, […] of the supernatant was transferred to a new microplate, 45 μL washing buffer added to the supernatant and the level of Rb in the supernatant was then measured using an Aurora ICR 8000. Compounds were studied at concentrations ranging from 0.003 to 67 μmol/L (dilutions by three, 10-pt CR) or from 0.037 to 27 μmol/L (dilutions by three, 7-pt CR).
# Stock solutions of compounds were prepared in DMSO 10 mM and stored at RT. Buffers used for AAS contained (in mM): HEPES 20, NaCl 150, MgCl2 1.0, CaCl2 2.0 and NaH2PO4 0.8 and Glucose 10 (wash 1) or KCl 5 and Glucose 5 (wash 2) or KCl 5 (dilution buffer). The High K^+ channel opener buffer contained (in mM): HEPES 20, NaCl 130, MgCl2 1.0, CaCl2 2.0 and NaH2PO4 0.8 together with KCl 20. Solutions used for Q-Patch (extracellular) in mM: NaCl 145, KCl 4, CaCl2 2.0, MgCl2 1.0, HEPES 10 and glucose 10. The high K^+ extra cellular solution used for Q-Patch in mM: NaCl 96.7, KCl 50.7, CaCl2 2.0, MgCl2 1.0, HEPES 10 and glucose 10 while the intra cellular solution used was (in mM): KCl 120, CaCl2 5.374, MgCl2 1.75, EGTA 10, KOH 3.125, HEPES 10, Na2ATP 4.
# Results are given as mean IC50 of >4 replicates (10-pt CR, AAS) or >3 replicates (7-pt CR, AAS). Some of the data in Table 1 are mean values of two or more runs. […]
row,SMILES,IC50
1,"CC(C)[C@@H](CN1CCCC1)N(C)C(=O)c1cc(F)cc(F)c1 [Example 16.12, (S)-3,5-Difluoro-N-methyl-N-(3-methyl-1-(pyrrolidin-1-yl)butan-2-yl)benzamide]",23 µM
2,"CC(C)[C@H](CN1CCCC1)N(C)C(=O)c1ccc(Cl)cc1Cl [Example 16.58, (R)-2,4-Dichloro-N-methyl-N-(3-methyl-1-(pyrrolidin-1-yl)butan-2-yl)benzamide]",5.8 µM
3,"Cc1ccc(C(=O)N(C)[C@H](CN2CCCC2)C(C)C)cc1 [Example 16.14, (S)—N,4-Dimethyl-N-(3-methyl-1-(pyrrolidin-1-yl)butan-2-yl)benzamide]",6.7 µM
4,"CC(C)[C@H](CN1CCCC1)N(C)C(=O)c1ccc(Cl)c(Cl)c1 [Example 16.56, (R)-3,4-Dichloro-N-methyl-N-(3-methyl-1-(pyrrolidin-1-yl)butan-2-yl)benzamide]",3.6 µM
5,"CC(C)[C@@H](CN1CCCC1)N(C)C(=O)c1ccc(OC(F)(F)F)cc1 [Example 16.15, (S)—N-Methyl-N-(3-methyl-1-(pyrrolidin-1-yl)butan-2-yl)-4-(tri-fluoromethoxy)benzamide]",2.5 µM
6,"CC(C)[C@@H](CN1CCCC1)N(C)C(=O)c1c(F)cccc1F [Example 16.24, 2,6-Difluoro-N-methyl-N-[(1S)-2-methyl-1-(pyrrolidin-1-ylmethyl)propyl]benzamide]",> 27 µM
7,"CC(C)[C@@H](CN1CCCC1)N(C)C(=O)c1ccc(Cl)cc1Cl [Example 16.47, (S)-2,4-Dichloro-N-methyl-N-(3-methyl-1-(pyrrolidin-1-yl)butan-2-yl)benzamide]",0.56 µM
8,"Cc1cc(C(=O)N(C)[C@H](CN2CCCC2)C(C)C)ccc1Cl [Example 16.50, (S)-4-Chloro-N,3-dimethyl-N-(3-methyl-1-(pyrrolidin-1-yl)butan-2-yl)benzamide]",0.42 µM

# Same assay, conditions: 10-pt CR (0.003 to 67 μmol/L), AAS Rb efflux, CHO-K1 cells expressing hKir3.1/Kir3.4; mean of >4 replicates; read-out: IKACh IC50 10-pt CR, AAS
row,SMILES,IC50
1,"CC(C)[C@@H](CN1CCC1)N(C)C(=O)c1ccccc1 [Example 1.14, (S)-N-(1-(Azetidin-1-yl)-3-methylbutan-2-yl)-N-methylbenzamide]",6.6 µM
2,"CCC[C@@H](CN1CC(O)C1)N(C)C(=O)c1ccc(Br)cc1 [Example 8.7, (S)-4-Bromo-N-(1-(3-hydroxyazetidin-1-yl)pentan-2-yl)-N-methylbenzamide]",1.7 µM
3,"CN(C(=O)c1ccc(C#N)cc1)C(CN1CC(O)C1)C1CCCC1 (single isomer, unassigned) [32.5, isomer 1]",0.34 µM
4,"CN(C(=O)c1ccc(Cl)cc1)C(C)(C)CN1CCCC1 [Example 16.6, 4-Chloro-N-methyl-N-(2-methyl-1-(pyrrolidin-1-yl)propan-2-yl)benzamide]",20 µM
5,"COc1ccc(C(=O)N(C)C(CN2CC(O)C2)C2CCCC2)cc1 (single isomer, unassigned) [32.2, isomer 1]",0.58 µM

# The next lines start with the values.
row,IC50,SMILES
1,5.3 µM,"CC(C)[C@@H](CN1CC(C)(O)C1)N(C)C(=O)c1ccc(F)c(C(F)(F)F)c1 [Example 9.8, (S)-4-Fluoro-N-(1-(3-hydroxy-3-methylazetidin-1-yl)-3-methyl-butan-2-yl)-N-methyl-3-(trifluoromethyl)benzamide]"
2,15 µM,"CC(C)[C@@H](CN1CCCC1)N(C)C(=O)c1cc(F)cc(F)c1 [Example 16.12, (S)-3,5-Difluoro-N-methyl-N-(3-methyl-1-(pyrrolidin-1-yl)butan-2-yl)benzamide]"
3,1.3 µM,"Cc1ccc(C(=O)N(C)[C@H](CN2CC(O)(C3CC3)C2)C2CC2)cc1C [Example 9.5, (S)-N-(1-Cyclopropyl-2-(3-cyclopropyl-3-hydroxyazetidin-1-yl)ethyl)-N,3,4-trimethylbenzamide]"
4,9.4 µM,"C[C@@H](CN1CC(O)C1)N(C)C(=O)c1ccc(Cl)c(F)c1 [Example 40.3, (S)-4-Chloro-3-fluoro-N-(1-(3-hydroxyazetidin-1-yl)propan-2-yl)-N-methylbenzamide]"
5,18 µM,"COc1cc(C(=O)N(C)[C@H](CN2CCCC(F)(F)C2)C(C)C)ccc1C [Example 16.4, (S)—N-(1-(3,3-Difluoropiperidin-1-yl)-3-methylbutan-2-yl)-3-methoxy-N,4-dimethylbenzamide]"
6,0.44 µM,"CCC[C@@H](CN1CC(O)C1)N(C)C(=O)c1ccc(C)c(C)c1 [Example 23, (S)—N-(1-(3-Hydroxyazetidin-1-yl)pentan-2-yl)-N,3,4-trimethylbenzamide]"
7,0.16 µM,"CCCC[C@@H](CN1CC(O)C1)N(C)C(=O)c1ccc(F)c(Cl)c1 [Example 33.8, 3-Chloro-4-fluoro-N-[(2S)-1-(3-hydroxyazetidin-1-yl)hexan-2-yl]-N-methylbenzamide]"
8,4.8 µM,"CN(C(=O)c1cccc(Cl)c1F)[C@@H](CN1CC(O)C1)C1CCC1 [Example 35.11, 3-Chloro-N-[(1R)-1-cyclobutyl-2-(3-hydroxyazetidin-1-yl)ethyl]-2-fluoro-N-methylbenzamide]"
9,9.8 µM,"CC(C)[C@@H](CN1CCCC1)N(C)C(=O)c1c(F)cccc1F [Example 16.24, 2,6-Difluoro-N-methyl-N-[(1S)-2-methyl-1-(pyrrolidin-1-ylmethyl)propyl]benzamide]"
10,4.2 µM,"COc1cc(C(=O)N(C)[C@@H](CC(C)C)CN2CC(O)C2)ccc1F [Example 38.5, 4-Fluoro-N-[(2S)-1-(3-hydroxyazetidin-1-yl)-4-methylpentan-2-yl]-3-methoxy-N-methylbenzamide]"
11,1.1 µM,"CN(C(=O)c1ccc(F)cc1Cl)[C@H](CN1CC(O)C1)C1CCC1 [Example 39.1, (S)-2-chloro-N-(1-cyclobutyl-2-(3-hydroxyazetidin-1-yl)ethyl)-4-fluoro-N-methylbenzamide]"
12,1.9 µM,"Cc1cc(C(=O)N(C)[C@H](CN2C[C@H](O)[C@@H](O)C2)C(C)C)ccc1Cl [Example 8.13, 4-Chloro-N-((S)-1-((3S,4S)-3,4-dihydroxypyrrolidin-1-yl)-3-methylbutan-2-yl)-N,3-dimethylbenzamide]"
